Assay results: the NIST ThermoML archive (doi:10.1021/je060025z)
± gives the expanded uncertainty stated by the source.

Legend:
[1] = 101.33 kPa, Liquid, Vibrating tube method
[2] = refractive index (Na D-line) (dimensionless); conditions: 101.33 kPa, Liquid, Standard Abbe refractometry

Row | SMILES | mass density ([1]; 293.15 K) | refractive index ([2]; 293.15 K) | further results
1 | COC(C)(C)C [2-methoxy-2-methylpropane] |  |  | mass density ([1]; 298.15 K): 734.7 ± 2 kg/m3; refractive index ([2]; 298.15 K): 1.3664 ± 0.0011
2 | CC(=O)C(C)C [3-methyl-2-butanone] | 804.8 ± 2.1 kg/m3 | 1.3884 ± 0.0011 | 
3 | CC(C)CCO [3-methylbutan-1-ol] | 808.4 ± 2.1 kg/m3 | 1.4075 ± 0.0011 | 
4 | CC(=O)CC(C)C [4-methylpentan-2-one] |  | 1.3958 ± 0.0011 | mass density ([1]; 298.15 K): 796.1 ± 2.1 kg/m3
5 | CCCCCCCC/C=C\CCCCCCCCO [(Z)-9-octadecen-1-ol] | 849 ± 2.3 kg/m3 | 1.4601 ± 0.0011 | 
6 | CCCC(=O)O [butanoic acid] |  | 1.3982 ± 0.0011 | mass density ([1]; 298.15 K): 952.3 ± 2.5 kg/m3
7 | CCC(C)=O [butanone] |  | 1.3793 ± 0.0011 | mass density ([1]; 298.15 K): 798.2 ± 2.1 kg/m3
8 | CC(=O)OC1CCCCC1 [cyclohexyl ethanoate] | 968.4 ± 2.6 kg/m3 | 1.4421 ± 0.0011 | 
9 | CCCCOC(=O)c1ccccc1C(=O)OCCCC [dibutyl phthalate] | 1047.1 ± 2.8 kg/m3 | 1.4909 ± 0.0011 | 
10 | COC(=O)c1ccccc1C(=O)OC [dimethyl 1,2-benzenedicarboxylate] | 1190.4 ± 3.2 kg/m3 | 1.5135 ± 0.0011 | 
11 | CCCCCCCCCCCCO [dodecan-1-ol] |  |  | mass density ([1]; 297.15 K): 831.1 ± 2.2 kg/m3
12 | CCOC(C)=O [ethyl acetate] | 900.1 ± 2.4 kg/m3 | 1.372 ± 0.0011 | 
13 | CCCCCC [hexane] |  |  | mass density ([1]; 298.15 K): 660.4 ± 1.8 kg/m3; refractive index ([2]; 298.15 K): 1.3729 ± 0.0011
14 | Cc1ccccc1 [toluene] | 866.7 ± 2.3 kg/m3 | 1.496 ± 0.0011 | 
15 | O [water] | 999.9 ± 2.7 kg/m3 | 1.3324 ± 0.0011 | 

The next lines start with results.

Row | mass density ([1]; 293.15 K) | refractive index ([2]; 293.15 K) | SMILES | further results
16 | 817.6 ± 2.2 kg/m3 | 1.4068 ± 0.0011 | CCCC(=O)CCC [4-heptanone] | 
17 | 829.6 ± 2.2 kg/m3 | 1.4374 ± 0.0011 | CCCCCCCCCCO [decan-1-ol] | 
18 | 828.5 ± 2.2 kg/m3 | 1.4327 ± 0.0011 | CCCCCCCCCO [nonan-1-ol] | 
19 | 810.7 ± 2.2 kg/m3 |  | CCCCCCCCN(CCCCCCCC)CCCCCCCC [trioctylamine] | refractive index ([2]; 292.15 K): 1.4505 ± 0.0011
